target: recombinant SARS-CoV-2 M^pro (Severe acute respiratory syndrome coronavirus 2 (2019-nCoV) (SARS-CoV-2), UniProt P0DTD1); test: Inhibition of SARS-CoV-2 M^pro enzyme activity (fluorescent substrate assay); type: biochemical; conditions: IC50, inhibition of SARS-CoV-2 M^pro enzyme activity; values in nM

Row | SMILES | IC50 [nM]
1 | C[C@@H](NC(=O)C(C)(C)Oc1ccc([Si](C)(C)C)cc1Cl)C(=O)N[C@H](Cc1ccccc1)C(=O)C(=O)NCc1ccccn1 [Compound 81] | 27.9 ± 5.5

same assay, conditions: inhibition of SARS-CoV-2 M^pro enzyme activity; values given in μM; read-out: IC50

Row | SMILES | IC50 [nM]
2 | O=C(NCc1nccs1)C(=O)[C@@H](Cc1ccccc1)NC(=O)c1ccc(F)cc1 [Compound 473] | 1310 ± 100
3 | CN(C(=O)C1CCC(F)(F)CC1)C1(C(=O)N[C@H](Cc2ccccc2)C(=O)C(=O)NCc2ccccn2)CC1 [Compound 167] | 3810 ± 170
4 | O=C(NCc1ccon1)C(=O)[C@@H](Cc1ccccc1)NC(=O)c1ccccc1 [Compound 459] | 54740 ± 350
5 | C[C@@H](NC(=O)C1CCC(F)(F)CC1)C(=O)N[C@H](Cc1ccccc1)C(=O)C(=O)NCc1c[nH]cn1 [Compound 346] | > 2500
6 | O=C(CNC(=O)c1ccccc1)N[C@H](Cc1ccccc1)C(=O)C(=O)NCc1nccs1 [Compound 477] | 1860 ± 40
7 | O=C(NCc1nccs1)C(=O)[C@@H](Cc1cccc(F)c1)NC(=O)c1ccccc1 [Compound 465] | 2550 ± 20

same assay, conditions: inhibition of SARS-CoV-2 M^pro enzyme activity; values in nM; read-out: IC50

Row | SMILES | IC50 [nM]
8 | C[C@@H](NC(=O)c1cc(OC(F)(F)F)ccc1F)C(=O)N[C@H](Cc1ccccc1)C(=O)C(=O)NCc1nccs1 [Compound 385] | 55.8 ± 7.2
9 | O=C(NCc1ccccn1)C(=O)[C@@H](Cc1ccccc1)NC(=O)[C@H]1CCCCN1C(=O)[C@@H]1C[C@@H]2[C@H](C1)C2(F)F [Compound 286] | 16.3 ± 1.5
10 | COC[C@@H](NC(=O)C1CCCC(F)(F)C1)C(=O)N[C@H](Cc1ccccc1)C(=O)C(=O)NCc1cscn1 (some centres unmarked) [Compound 544] | 22.5 ± 0.9
11 | C[C@@H](NC(=O)COc1ccccc1F)C(=O)N[C@H](Cc1ccccc1)C(=O)C(=O)NCc1ccccn1 [Compound 70] | 22.9 ± 0.3
12 | O=C(COc1ccccc1)N[C@H](Cc1ccccc1)C(=O)C(=O)NCc1nccs1 [Compound 476] | 880.8 ± 1.2
13 | O=C(NCc1ccccn1)C(=O)[C@@H](Cc1ccccc1)NC(=O)[C@H]1COCCN1C(=O)C1(F)CCCCC1 [Compound 294] | 14.5 ± 0.2
14 | Cc1nn(CC(=O)N[C@H](Cc2ccccc2)C(=O)C(=O)NCc2nccs2)c(C)c1-c1ccc(F)c(Cl)c1 [Compound 499] | 32.9 ± 1.5
15 | C[C@@H](NC(=O)N1CCC(C(F)(F)F)CC1)C(=O)N[C@H](Cc1ccccc1)C(=O)C(=O)NCc1ccccn1 [Compound 297] | 18.1 ± 0.3
16 | O=C(CNC(=O)N1CCC(F)(F)CC1)N[C@H](Cc1ccccc1)C(=O)C(=O)NCc1ccccn1 [Compound 304] | 53.8 ± 5.8
17 | C[C@@H](OCc1cc(F)cc(Cl)c1)C(=O)N[C@H](Cc1ccccc1)C(=O)C(=O)NCc1ccc(Cl)cn1 [Compound 46] | 13.3 ± 0.1
18 | O=C(NCc1ccccn1)C(=O)[C@@H](Cc1ccccc1)NC(=O)[C@H]1C[C@@H]2C[C@@H]2N1C(=O)CC1CCC(F)(F)CC1 [Compound 273] | 17 ± 0.1
19 | COc1ccc(CO[C@H](C)C(=O)N[C@H](Cc2ccccc2)C(=O)C(=O)NCc2ccccn2)cc1F [Compound 16] | 18.9 ± 1.7
20 | O=C(NCc1ccccn1)C(=O)[C@@H](Cc1ccccc1)NC(=O)[C@@H]1[C@H]2CCC[C@H]2CN1C(=O)[C@@H](NC(=O)c1cnccn1)C1CCCCC1 [Compound 261] | 863.6 ± 0.1
21 | C[C@@H](NC(=O)N1CC2(C1)CC(F)(F)C2)C(=O)N[C@H](Cc1ccccc1)C(=O)C(=O)NCc1ccccn1 [Compound 298] | 14.9 ± 0.1
22 | N#Cc1cc(F)cc(C(=O)NCC(=O)N[C@H](Cc2ccccc2)C(=O)C(=O)NCc2ccccn2)c1 [Compound 442] | 20.6 ± 1
23 | O=C(CNC(=O)c1cnccn1)N[C@H](Cc1ccccc1)C(=O)C(=O)NCc1ccccn1 [Compound 154] | 193 ± 2
24 | O=C(NCc1cscn1)C(=O)[C@@H](Cc1ccccc1)NC(=O)[C@H]1COCCN1C(=O)CC1CC(F)(F)C1 [Compound 436] | 171 ± 2.4
25 | O=C(CNC(=O)NC1CCC(F)(F)CC1)N[C@H](Cc1ccccc1)C(=O)C(=O)NCc1ccccn1 [Compound 305] | 24.3 ± 0.4
26 | O=C(CCC(F)(F)F)NC1(C(=O)N[C@H](Cc2ccccc2)C(=O)C(=O)NCc2ccccn2)CCC1 [Compound 213] | 41.4 ± 0.8
27 | O=C(NCc1ccccn1)C(=O)[C@@H](Cc1ccccc1)NC(=O)[C@H]1Cc2ccccc2CN1C(=O)N1CCC(F)(F)CC1 [Compound 311] | 16.7 ± 0.6

Row | SMILES | IC50 [nM]
28 | COc1ccccc1OCC(=O)N[C@H](C)C(=O)N[C@H](Cc1ccccc1)C(=O)C(=O)NCc1ccccn1 [Compound 89] | 40.9 ± 1.2
29 | O=C(NCc1nccs1)C(=O)[C@@H](Cc1ccccc1)NC(=O)[C@H]1COCCN1C(=O)CC1CC1(F)F (some centres unmarked) [Compound 413] | 29.1 ± 2.5
30 | CC(C(=O)N[C@H](C)C(=O)N[C@H](Cc1ccccc1)C(=O)C(=O)NCc1ccccn1)C1CCCCC1 (some centres unmarked) [Compound 130] | 98.6 ± 6.8
31 | O=C(NCc1ccccn1)C(=O)[C@@H](Cc1ccccc1)NC(=O)C1(C(=O)NCC2CCC(F)(F)CC2)CC1 [Compound 320] | 16.7 ± 0.3
32 | CC(C)(OCc1ccc(OC(F)(F)F)cc1)C(=O)N[C@H](Cc1ccccc1)C(=O)C(=O)NCc1ccccn1 [Compound 17] | 19.8 ± 0.2
33 | O=C(NCc1ccccn1)C(=O)[C@@H](Cc1ccccc1)NC(=O)C1(NC(=O)C2(F)CCCCC2)CC1 [Compound 168] | 10.7 ± 0.4
34 | CC[C@@H](OCc1ccc(F)cc1)C(=O)N[C@H](Cc1ccccc1)C(=O)C(=O)NCc1ccc(Cl)cn1 [Compound 48] | 30.9 ± 0.3
35 | CC(C)C(Oc1ccc(Cl)cc1)C(=O)N[C@H](C)C(=O)N[C@H](Cc1ccccc1)C(=O)C(=O)NCc1ccccn1 (some centres unmarked) [Compound 83] | 6.7 ± 0.1
36 | O=C(CC12CC3CC(CC(C3)C1)C2)NC1(C(=O)N[C@H](Cc2ccccc2)C(=O)C(=O)NCc2ccccn2)CCC1 [Compound 196] | 14.5 ± 0.1
37 | O=C(NCc1ccccn1)C(=O)[C@@H](Cc1ccccc1)NC(=O)[C@H](NC(=O)c1ccc(F)cc1)C1CC1 [Compound 250] | 42.4 ± 2.4
38 | O=C(NCc1ccccn1)C(=O)[C@@H](Cc1ccccc1)NC(=O)[C@H]1Cc2ccccc2CN1C(=O)C1CCC(F)(F)CC1 [Compound 267] | 11.2 ± 0.3
39 | O=C(NCc1nccs1)C(=O)[C@@H](Cc1ccccc1)NC(=O)c1cccc(F)c1 [Compound 472] | 478 ± 4.8
40 | O=C(Cc1noc(-c2cc(F)ccc2F)n1)N[C@H](Cc1ccccc1)C(=O)C(=O)NCc1nccs1 [Compound 520] | 161.3 ± 1.2
41 | O=C(CNC(=O)C1CCC(F)(F)C1)N[C@H](Cc1ccccc1)C(=O)C(=O)NCc1cscn1 (some centres unmarked) [Compound 429] | 33.8 ± 1
42 | O=C(CNC(=O)C1CCC(F)(F)CC1)N[C@H](Cc1ccccc1Cl)C(=O)C(=O)NCc1ccccn1 [Compound 449] | 45.3 ± 1.2
43 | C[C@@H](NC(=O)OCc1ccccc1)C(=O)N[C@H](Cc1ccccc1)C(=O)C(=O)NCc1ccccn1 [Compound 316] | 15.9 ± 0.4
44 | O=C(Cn1cc(-c2ccc(F)c(Cl)c2)c(C(F)(F)F)n1)N[C@H](Cc1ccccc1)C(=O)C(=O)NCc1nccs1 [Compound 500] | 38.9 ± 0.5
45 | O=C(O)C[C@@H](NC(=O)CC1CC(F)(F)C1)C(=O)N[C@H](Cc1ccccc1)C(=O)C(=O)NCc1nccs1 [Compound 572] | 33.8 ± 2.5
46 | C#CCC(NC(=O)C1CCC(F)(F)CC1)C(=O)N[C@H](Cc1ccccc1)C(=O)C(=O)NCc1ccccn1 (some centres unmarked) [Compound 231] | 35.4 ± 0.2
47 | O=C(CC1CC1(F)F)NCC(=O)N[C@H](Cc1ccccc1)C(=O)C(=O)NCc1nccs1 (some centres unmarked) [Compound 386] | 166 ± 2.1

Row | SMILES | IC50 [nM]
48 | COC[C@@H](NC(=O)NC1CCC(F)(F)CC1)C(=O)N[C@H](Cc1ccccc1)C(=O)C(=O)NCc1nccs1 [Compound 551] | 23.3 ± 3.1
49 | C[C@@H](NC(=O)c1ccc(F)cc1)C(=O)N[C@H](Cc1ccccc1)C(=O)C(=O)NCc1ccc(Cl)cn1 [Compound 59] | 26.6 ± 1.8
50 | C[C@@H](NC(=O)C1CCC(F)(F)CC1)C(=O)N[C@H](Cc1cccc(F)c1)C(=O)C(=O)NCc1ccccn1 [Compound 360] | 31 ± 3.9
51 | O=C(Cn1cc(-c2cc(F)ccc2F)cn1)N[C@H](Cc1ccccc1)C(=O)C(=O)NCc1nccs1 [Compound 507] | 12.6 ± 0.4
52 | O=C(NC1(C(=O)N[C@H](Cc2ccccc2)C(=O)C(=O)NCc2ccccn2)CCC1)O[C@H]1CO[C@H]2OCC[C@H]21 [Compound 315] | 20.2 ± 3.3
53 | CC(C)(OCc1ccc(Cl)cc1)C(=O)N[C@H](Cc1ccccc1)C(=O)C(=O)NCc1ccccn1 [Compound 18] | 13.7 ± 2
54 | O=C(CNC(=O)C1CCC(F)(F)CC1)N[C@H](Cc1ccccc1)C(=O)C(=O)NCc1cscn1 [Compound 421] | 20.7 ± 0.5
55 | O=C(CN1C(=O)CN(c2cccc(Cl)c2)C1=O)N[C@H](Cc1ccccc1)C(=O)C(=O)NCc1nccs1 [Compound 527] | 44.3 ± 1.1
56 | C[C@@H](NC(=O)C1CCC(F)(F)CC1)C(=O)N[C@H](Cc1ccccc1)C(=O)C(=O)NCc1cscn1 [Compound 357] | 22.3 ± 0.9
57 | COc1ccc(OC(F)(F)F)cc1C(=O)N[C@H](C)C(=O)N[C@H](Cc1ccccc1)C(=O)C(=O)NCc1nccs1 [Compound 384] | 15.5 ± 0.3
58 | CC(C)(C(=O)N[C@H](Cc1ccccc1)C(=O)C(=O)NCc1ccccn1)n1cc(Br)cn1 [Compound 327] | 245 ± 2.7
59 | C[C@@H](NC(=O)c1cccc(OC(F)(F)F)c1)C(=O)N[C@H](Cc1ccccc1)C(=O)C(=O)NCc1ccccn1 [Compound 143] | 16.4 ± 1.5
60 | O=C(NCc1ccccn1)C(=O)[C@@H](Cc1ccccc1)NC(=O)[C@@H](Cc1cccnc1)NC(=O)C1CCC(F)(F)CC1 [Compound 218] | 23.4 ± 0.8
61 | O=C(Cn1nc(-c2ccc(F)cc2)cc1C(F)(F)F)N[C@H](Cc1ccccc1)C(=O)C(=O)NCc1nccs1 [Compound 530] | 32.5 ± 1.1
62 | C[C@H](C(=O)N[C@H](Cc1ccccc1)C(=O)C(=O)NCc1ccccn1)N(C)C(=O)C1CCC(F)(F)CC1 [Compound 119] | 16.5 ± 1.5
63 | O=C(NCc1nccs1)C(=O)[C@@H](Cc1ccccc1)NC(=O)[C@H]1CC(F)(F)CN1C(=O)[C@@H]1C[C@@H]2[C@H](C1)C2(F)F [Compound 406] | 52.7 ± 1.1
64 | O=C(NCc1ccccn1)C(=O)[C@@H](Cc1ccccc1)NC(=O)C1(C(=O)NC2CCC(F)(F)CC2)CC1 [Compound 319] | 37.1 ± 2.9
65 | CNC(=O)C[C@@H](NC(=O)CC1CC(F)(F)C1)C(=O)N[C@H](Cc1ccccc1)C(=O)C(=O)NCc1nccs1 [Compound 575] | 23.5 ± 0.9

Source: patent US20250064789A1, “KETOAMIDE DERIVATIVES AND PHARMACEUTICAL USES THEREOF” (priority 2022, published 2025)
